Experimental data as given in PMC12690573, “Playing with Structural Parameters in the Design of Ruthenium(II)–p‑Cymene Complexes as Potential Antibacterial Agents” (Inorganic Chemistry, 2025).
Values after ≈ are worked out from the molar mass of the structure shown. Like-named read-outs stand apart in the source and are kept apart here.

Assays:
[1] = Stability in CH3CN/PBS solution by UV–vis over 72 h; type: physicochemical; settings: 1 × 10^–5 M in CH3CN/PBS (CH3CN 1% v/v), room temperature
Description: To gain insights into the suitability of RACs for biological purposes, their stability in aqueous solution was investigated before studying their interactions with representative proteins (SOD, RNase A, and CytC) by ESI-MS analysis (vide infra). Measurements were performed under strictly controlled conditions (temperature, pH, and complex concentration), namely, at a concentration of 1 × 10^–5 M in CH3CN/PBS solution (CH3CN 1% v/v) at room temperature, over a total of 72 h. The resulting time-dependent absorption profiles are reported in Figure S26 (Supporting Information).
Spectrofluorimetric-grade solvents were used for the preparation of all solutions. The PBS solution (pH 7.4, KCl 2.7 mM, NaCl 140 mM, phosphate 10 mM) was prepared according to the standard procedure. RACs were dissolved in CH3CN and then diluted to reach a final concentration of 1 × 10^–5 M in CH3CN/buffer solution (CH3CN 1% v/v). A PerkinElmer Lambda 900 spectrophotometer was employed to record the UV–Visible absorption spectra using 10 mm path-length quartz cuvettes.

[2] = Water–octanol partition coefficient, shake-flask method (Log P pH7.4); type: physicochemical; settings: PBS pH 7.4 / n-octanol, 16 μM
Description: The study was performed by using the shake-flask method, obtaining the water–octanol partition coefficients of complexes in PBS buffer at pH = 7.4 (Log P pH7.4), as listed in Table .
The octanol–water distribution coefficients were determined at pH 7.4 using the shake-flask method. , Briefly, solutions of the tested compounds (16 μM) in phosphate buffer (pH 7.4) were mixed with n-octanol in flasks at three different PBS:n-octanol ratios (1:1, 0.5:1, 2:1). The mixtures were manually shaken to allow equilibration between the organic and aqueous phases. Subsequently, phase separation was achieved by centrifugation at 4000 rpm for 10 min. The concentrations of ruthenium compounds in both phases were then determined spectrophotometrically. The log P 7.4 values were calculated as the mean value of the log[Ru-pCy1–5]-oct/[Ru-pCy1–5]PBS/4 values obtained from the three different PBS:n-octanol ratio samples for each complex.

[3] = target: T1, Bovine Superoxide Dismutase (SOD) (Bos taurus, UniProt P00442); experiment: ESI-MS protein interaction study with SOD; type: binding; settings: 1:3 protein to ruthenium ratio, 24 h, 37 °C
T1 construct: purchased Merck
Description: (§1) Accordingly, ESI-MS spectra of RNase A, SOD, and CytC incubated for 24 h with a 3-fold molar excess of each of the five different ruthenium complexes were recorded. […] This could be exacerbated by the steric hindrance of L3.
(§2) Sample preparation: stock solutions of Bovine Superoxide Dismutase SOD) (Merck), Bovine Pancreatic Ribonuclease A (Merck), and Horse Heart Cytochrome c (Merck) 10^–3 M were prepared by dissolving the lyophilized protein in LC–MS-grade water. Stock solutions 10^–2 M RACs were prepared by dissolving the samples in acetonitrile. For the experiments, an aliquot of the stock solutions of the selected protein was mixed with aliquots of each ruthenium compounds at protein-to-metal ratio 1:3 and diluted with LC–MS-grade water to 100 μM final protein concentration. The mixtures were incubated at 37 °C up to 24 h. After the incubation time, the protein solutions were sampled and diluted to a final protein concentration of 500 nM using LC–MS-grade water and adding 0.1% v/v of formic acid just before the infusion in the mass spectrometer.
(§3) Instrumental parameters: the ESI mass spectra were acquired through direct infusion at 7 μL min^–1 flow rate in a TripleTOF 5600+ high-resolution mass spectrometer (Sciex, Framingham, MA, U.S.A.), equipped with a DuoSpray interface operating with an ESI probe.
SOD: positive polarity, IonSpray Voltage Floating 5500 V, Temperature 0, Ion source Gas 1 (GS1) 40 L/min; Ion source Gas 2 (GS2) 0; Curtain Gas (CUR) 15 L/min, Declustering Potential (DP) 200 V, Collision Energy (CE) 10 V, acquisition range 1500–3500 m/z.
(§4) For acquisition, Analyst TF software 1.7.1 (Sciex) was used, and deconvoluted spectra were obtained by using the Bio Tool Kit microapplication v.2.2 embedded in Peak-ViewTM software v.2.2 (Sciex).

[4] = Aquation (Ru–Cl hydrolysis) followed by UV–vis in aqueous solution; type: physicochemical; settings: neutral pH, 298 K; for k water (aquation rate constant) / t 1/2 (aquation half-life): 10 μM, pseudo-first-order model
Description: In view of the well-known lability of the Ru(II)–Cl bond in RACs and considering its relevance for their biological mechanism of action, the aquation process of all systems was investigated. This was performed according to literature methods spectrophotometrically, by registering the UV–vis spectra of freshly prepared aqueous solutions of complexes at neutral pH over different times, up to 12 h, at 298 K. Results for Ru-pCy1 are shown in Figure , while those for the other complexes are reported in Figures S27–S28 Supporting Information. […] The temporal evolution to the aquo-species is also further supported by comparison of spectra collected at increasing time frames and the absorption profile of the aquo species, registered by adding AgNO3 to the metal complex (Figure b). A similar behavior was also observed for the other compounds, confirming their capability to readily lose the chloride ligand. […] Hydrolysis was not observed during the stability experiments (Figure S26), likely being suppressed by the high NaCl concentration in the PBS buffer media (140 mM).
The aquation rate constants (k water) and the corresponding half-lives (t 1/2) were determined by the time-dependent absorbance changes at the MLCT maxima according to a pseudo-first-order kinetic model. The resulting values, reported in Table , range between 2.48 and 5.4 × 10^–4 s^–1.

[5] = pKa of coordinated water ligand by UV–vis pH titration; type: physicochemical; settings: absorbance at 435 nm, Henderson–Hasselbalch fit, 298 K
Description: Lastly, the tendency of the coordinated water ligand to undergo deprotonation was also considered. This has been investigated for the lead compound Ru-pCy1, by recording the UV–vis spectra of batchwise aqueous solutions of the complex at different pH values and monitoring the changes in the MLCT region (Figure S29).
(§5) The acid–base behavior of the coordinated water ligand to the metal scaffold was also considered. To this aim, the UV–vis spectra of batchwise aqueous solutions of the lead compound Ru-pCy1 at different pH at 298 K were registered, and the changes in the MLCT region were monitored. […] A slightly higher value (8.82 ± 0.08) was instead determined potentiometrically under mixed solvent conditions (H2O/EtOH 4:1 v/v, NaClO4 0.1 M, 298 K, ligand concentration 1 mM), required to ensure the full solubilization of the complex.

B. subtilis 168 = experiment: Antibacterial susceptibility, broth microdilution (OD600); type: cell-based, Bacillus subtilis; settings: for MIC: B. subtilis 168, MHB, 24 h; for Concentration inducing approximately 50% inhibition of bacterial growth / Antibacterial activity profile (in words): B. subtilis; for Concentration inducing approximately 50% inhibition of bacterial growth: normalized OD600, 24 h; for Antibacterial activity profile (in words): normalized OD600 vs concentration
Description: (§6) The antibacterial properties of Ru-pCy1–5 were investigated against Burkholderia cenocepacia strains J2315 and K56-2, two well-characterized clinical isolates of this Gram-negative pathogen, as well as against Bacillus subtilis 168, which was used as a model for a Gram-positive bacterial strain.
(§7) The obtained results are presented as normalized OD600 values, reporting the ratio of bacterial growth relative to that of the control (untreated) cells. These are plotted in Figure as a function of the compound concentrations (μg/mL), providing a quantitative assessment of the dose-dependent effects on bacterial growth of the tested ruthenium complexes.
(§8) Antimicrobial susceptibility was assessed in the following strains: B. cenocepacia K56-2 and J2315 and B. subtilis 168. For each bacterial strain, three independent biological replicates were prepared by inoculating Mueller–Hinton Broth (MHB) into sterile culture tubes, followed by overnight incubation at 37 °C with shaking at 130 rpm. Cultures were diluted to a final OD600 of 0.05 per well in 96-well microplates (Sarstedt AG & Co.) and exposed to 10 serial 2-fold dilutions of the compounds, ranging from 256 μg/mL to 0.5 μg/mL. Each biological replicate included three technical replicates. Growth inhibition was assessed visually and quantified by measuring OD600 after 24 h for B. subtilis 168 and after 48 h for B. cenocepacia strains K56-2 and J2315 using a Tecan Infinite 200 PRO plate reader.

B. cenocepacia J2315 = experiment: as above; type: cell-based, Burkholderia cenocepacia; settings: for MIC: B. cenocepacia J2315, MHB, 48 h
Description: as §6, §7, §8

B. cenocepacia K56-2 = experiment: as above; type: cell-based, Burkholderia cenocepacia; settings: B. cenocepacia K56-2, MHB, 48 h
Description: as §6, §7, §8

[6] = pKa of coordinated water ligand, potentiometric; type: physicochemical; settings: H2O/EtOH 4:1 v/v, NaClO4 0.1 M, 298 K, 1 mM
Description: as §5

[7] = target: T2, Bovine Pancreatic Ribonuclease A (Bos taurus, UniProt P61823); experiment: ESI-MS protein interaction study with RNase A; type: binding; settings: 1:3 protein to ruthenium ratio, 24 h, 37 °C
T2 construct: Bovine Pancreatic Ribonuclease A (Merck); purchased Merck
T2 sequence (P61823 27-150): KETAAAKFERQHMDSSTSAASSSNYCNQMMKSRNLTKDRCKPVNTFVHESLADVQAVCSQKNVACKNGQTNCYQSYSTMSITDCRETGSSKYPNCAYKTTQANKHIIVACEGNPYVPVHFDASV
Description: as §1, §2, §3
RNase: positive polarity, Ionspray Voltage Floating 5500 V, Temperature 0, Ion source Gas 1 (GS1) 40 L/min; Ion source Gas 2 (GS2) 0; Curtain Gas (CUR) 15 L/min, Declustering Potential (DP) 100 V, Collision Energy (CE) 10 V, acquisition range 1000–2600 m/z.
as §4

Horse Heart Cytochrome c = target: T3, Horse Heart Cytochrome c (Equus caballus, UniProt P00004); experiment: ESI-MS protein interaction study with CytC; type: binding; settings: 1:3 protein to ruthenium ratio, 24 h, 37 °C
T3 construct: Horse Heart Cytochrome c (Merck); purchased Merck
Description: as §1, §2
Instrumental parameters: the ESI mass spectra were acquired through direct infusion at 7 μL min^–1 flow rate in a TripleTOF 5600+ high-resolution mass spectrometer (Sciex, Framingham, MA, U.S.A.), equipped with a DuoSpray interface operating with an ESI probe. […]

T1 sequence (P00442 whole entry): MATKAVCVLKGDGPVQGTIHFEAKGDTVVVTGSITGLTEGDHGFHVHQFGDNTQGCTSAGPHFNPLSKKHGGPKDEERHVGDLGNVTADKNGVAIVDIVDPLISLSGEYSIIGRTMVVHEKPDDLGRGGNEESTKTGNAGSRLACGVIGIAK
T3 sequence (P00004 whole entry): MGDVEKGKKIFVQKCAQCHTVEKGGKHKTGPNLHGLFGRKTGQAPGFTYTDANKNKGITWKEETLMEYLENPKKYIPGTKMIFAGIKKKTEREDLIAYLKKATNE

Log P pH7.4 [2]	Adduct formation with SOD [3]	t 1/2 (aquation half-life) [4] [min]	pK a of coordinated water ligand [5]	MIC (B. subtilis 168) [µg/mL]	MIC (B. cenocepacia J2315) [µg/mL]	MIC (B. cenocepacia K56-2) [µg/mL]	pK a of coordinated water ligand [6]	Adduct formation with RNase A [7]	Ru–Cl hydrolysis (spectral variation over time) ([4]; aqueous solution, up to 12 h)	Adduct formation with CytC (Horse Heart Cytochrome c)	MIC (B. subtilis 168; Bacillus subtilis, read-out: MIC) [µg/mL]	MIC (B. cenocepacia J2315; Burkholderia cenocepacia, read-out: MIC) [µg/mL]	MIC (B. cenocepacia K56-2; Burkholderia cenocepacia, K562, read-out: MIC) [µg/mL]	SMILES	Stability in aqueous solution [1]	k water (aquation rate constant) [4]	Concentration inducing approximately 50% inhibition of bacterial growth (B. subtilis 168) [µg/mL]	Antibacterial activity profile (in words) (B. subtilis 168)	Concentration inducing approximately 50% inhibition of bacterial growth (B. cenocepacia J2315; B. cenocepacia J2315, normalized OD600, 48 h) [µg/mL]
0.80 ± 0.30	form stable adducts	46.5 ± 2.0	8.3 ± 0.1	128	128	256	8.82 ± 0.08	form stable adducts	–	–	–	–	–	Cc1ccc(C(C)C)cc1.F[P-](F)(F)(F)(F)F.[Cl-].[Ru+2].c1ccc2cc3nc4c5cccnc5c5ncccc5c4nc3cc2c1 [Ru-pCy1]	moderate tendency to precipitate at the longest time points	2.5 ± 0.1 × 10^–4 s^–1	~64	notable inhibitory effect	~32
0.91 ± 0.30	form stable adducts	25.7 ± 1.2	–	256	256	> 256	–	form stable adducts	–	–	–	–	–	Cc1ccc(C(C)C)cc1.F[P-](F)(F)(F)(F)F.[Cl-].[Ru+2].c1ccc(-c2ccnc3c2ccc2c(-c4ccccc4)ccnc23)cc1 [Ru-pCy2]	–	4.5 ± 0.2 × 10^–4 s^–1	~8	notable inhibitory effect	–
0.57 ± 0.19	did not interact	–	–	256	256	> 256	–	did not interact	did not show appreciable variations	did not interact	–	–	–	Cc1ccc(C(C)C)cc1.F[P-](F)(F)(F)(F)F.[Cl-].[Ru+2].c1ccc2nc(-c3ccc4ccccc4n3)ccc2c1 [Ru-pCy3]	–	–	–	intermediate antibacterial characteristics	–
–	–	–	–	–	–	–	–	–	–	–	16 (≈ 49.5 µM)	32 (≈ 99 µM)	64 (≈ 198 µM)	O=C(N[C@H](CO)[C@H](O)c1ccc([N+](=O)[O-])cc1)C(Cl)Cl [chloramphenicol, reference compound]	–	–	–	–	–
